Assay results: article PMC12993615 (The journal of pain, 2024)

Legend:
Type in all cases: in vivo, male Sprague Dawley rats
[1] = tested on: oxaliplatin-induced mechanical allodynia; assay: Prevention of OIPN, paw withdrawal threshold; conditions: pregabalin 30 mg/kg PO QD
Description: (§1) Male Sprague Dawley rats (150–210 g) were housed in groups of 4 in intra-ventilated Perspex home cages. Humidity, temperature (21 ± 1 °C), and lighting (light-dark cycle of 12:12 hours) were controlled and maintained in the home cages, with food and water available ad libitum. Rats acclimatised to the home cages for at least 1 week. All experiments were carried out according to the Animals (Scientific Procedures) Act, 1986 (U.K. Government Home Office). The study was performed under the Home Office project licence number PP0847012. OIPN was established with a single dose of OXA (10 mg/kg, IP).
(§2) Pain measurements were made on Days 5/6 (when neuropathy has normally developed) and at the end of the study. […] Terminal plasma samples were taken for bioanalysis and proteomics (Somalogic). Brain regions involved in pain processing, that is, prefrontal cortex (PFC), periaqueductal grey (PAG), whole spinal cords (SC), and L4-L6 dorsal root ganglia, were collected for lipidomic and genomic (Genewiz, China) analyses.
(§3) Tactile allodynia (primary outcome measure) was assessed using paw withdrawal threshold (PWT), a measure of pain sensitivity. PWT was evaluated using calibrated von-Frey monofilaments (Touch-Test Sensory Evaluator; Scientific Marketing Associates) applied to the plantar surface of the left hind paw. PWT was determined by increasing and decreasing stimulus intensity and estimated using Dixon’s up-down method.[38],[39]
To acquire baseline readings, pain behaviour was assessed on 3 consecutive days (Days −3, −2, −1). The mean of Day −2 and Day −1 was considered the healthy baseline (HBL) prior to OIPN induction. On Days 5 and 6 after OXA injection, thresholds were reassessed. The mean of Days 5 and 6 was considered the neuropathic baseline (NPB). Animals were then ranked and randomised (based on a Latin square design) to treatment groups according to the percentage change of the mean thresholds observed in the NPB compared to the HBL. NPB expressed as a percentage change from HBL was calculated as follows (HBL-NPB)/HBL*100. All behavioural assessment was done by an experimenter blinded to the identity of the treatment. Separate people were responsible for dosing and assessment/data analysis.

[2] = Prevention of OIPN, body weight; conditions: pregabalin 30 mg/kg PO QD
Description: as §2

[3] = tested on: oxaliplatin-induced thermal hyperalgesia; assay: Prevention of OIPN, cold plate latency; conditions: pregabalin 30 mg/kg PO QD, P < .001
Description: as §1
Pain measurements were made on Days 5/6 (when neuropathy has normally developed) and at the end of the study. […] Terminal plasma samples were taken for bioanalysis and proteomics (Somalogic). […]
Thermal hyperalgesia was assessed using a cold plate (Bioseb, France) set at a fixed temperature of 15 °C. Latency to the first escape behaviour from the plate was measured indicating discomfort to the thermal stimulation. […]
(§4) To acquire baseline readings, pain behaviour was assessed on 3 consecutive days (Days −3, −2, −1). […] NPB expressed as a percentage change from HBL was calculated as follows (HBL-NPB)/HBL*100. […]

[4] = tested on: oxaliplatin-induced mechanical allodynia; assay: 7-day treatment of established OIPN, paw withdrawal threshold; conditions: pregabalin 30 mg/kg PO on Days 7 and 14, P < .01
Description: as §1
Body weight was monitored throughout the study, and terminal plasma and whole brain samples were taken for bioanalysis.
as §3, §4

CC(C)C[C@H](CN)CC(=O)O [pregabalin, Pregabalin, reference compound]
PWT on Day 14 compared to HBL [1]: neither the ART26.12 nor the pregabalin groups showed significant allodynia | PWT on Day 5/6 compared to HBL ([1]; P < .05): significantly lower PWTs | body weight in first 4 days post-administration of OXA [2]: weight loss | cold plate latencies on Day 14 versus vehicle [3]: significantly higher cold plate latencies than the vehicle group | PWT scores versus vehicle [4]: significantly higher PWT scores than vehicle
